Assay results reported in patent US20230277553A1, “THERAPEUTIC COMPOSITION OF CURE-PRO COMPOUNDS FOR TARGETED DEGRADATION OF BET DOMAIN PROTEINS, AND METHODS OF MAKING AND USAGE” (CORNELL UNIVERSITY, priority 2020, published 2023).
Entries after “also recorded” stand apart in the source; their conditions may differ.

Columns and labels:
[1] = molecular target: T1, BRD4 (Homo sapiens, UniProt O60885); assay: CURE-PRO-mediated BRD4 degradation with VHL ligands, Western blot, MCF7 cells; assay type: cell-based; design: endogenous in cells; conditions: MCF7, 24 h, 1:1 with 8305, 100 nM-10 μM
Procedure: All cell lines were purchased from ATCC or DSMZ and grown at 37° C. with 5% CO2. Human HeLa cells were cultured in complete growth medium (Dulbecco's modified Eagle's medium (DMEM) supplemented with 10% FBS); MCF7 cells were cultured in complete growth medium (Dulbecco's modified Eagle's medium (DMEM) supplemented with 10% FBS and 0.01 mg/ml human recombinant insulin (Sigma Aldrich); Namalwa and MOLM-13 cells were cultured in complete growth medium (RPMI 1640 medium supplemented with 10% FBS); MV-4-11 were cultured in complete growth medium (Iscove's Modified Dulbecco's medium, supplemented with 10% FBS); HCT116 cells were cultured in complete growth medium (McCoy's 5a Medium supplemented with 10% FBS). For cellular degradation of BRD4 studies, cells were seeded in a 12-well plate at 70-80% confluency, allowed to attach overnight, and incubated with the indicated compounds for the indicated time. When indicated, a 15-minute pretreatment with 10 μM pomalidomide, 10 μM VHL298, 10 μM Nutlin3a, 1 μM MG-132 or 1 μM Carfilzomib was performed before the addition of CURE-PROs. For washout studies, after CURE-PRO treatment, media was aspirated and incubated with complete medium for the indicated time before lysis.
(§1) HeLa, MCF7, or HCT116 cells (2.5-3×10^6) were treated for 24 hours with the indicated compounds solubilized in DMSO. The cells were washed in ice-cold PBS and were then lysed in RIPA lysis buffer (150 mM NaCl, 5 mM EDTA, 1% NP-40, 0.5% sodium deoxycholate, 0.1% SDS, 50 mM Tris, pH 8.0.) with Roche protease inhibitor complete cocktail and phosphatase inhibitors (10 mM sodium fluoride, 10 mM sodium pyrophosphate, 1 mM sodium orthovanadate and 20 mM β-glycerophosphate). The total protein concentrations were determined by Bradford Protein Assay and 10-20 μg of protein was loaded onto 4-15% Tris-Glycine gradient gels (Biorad). After standard gel electrophoresis, the separated proteins were transferred to PVDF membrane by wet transfer. The immunoblots were then blocked for 1 hour in 5% skim milk in TBST or 5% BSA in TBST, according to manufacturer's instructions, before an overnight incubation at 4° C. with indicated antibodies and membranes. Membranes were then incubated with the appropriate horseradish peroxidase-conjugated secondary antibodies (1:5,000 dilution) for 1 h at room temperature and the bands were visualized using the Clarity Max Western ECL Substrate (Biorad) and the ChemiDoc Imaging System (Biorad). Signal was detected with ECL Western Blotting Substrate (Pierce) and X-ray film processed with a Konica SRX-101 X-ray film processor or captured by Bio-Rad's Chemidoc Imaging system.
MCF7 cells (3×10^6) were treated for 24 h with the compounds solubilized in DMSO. Compounds were added at 100 nM-10 μM. […]

[2] = molecular target: T1, BRD4; assay: CURE-PRO-mediated BRD4 degradation with MDM2 ligands, Western blot, HCT116 cells; assay type: cell-based; design: endogenous in cells; conditions: for BRD4 degradation, in combination with MDM2 ligands 8310 and 8312 (Western blot): HCT116, 24 h, 1:1, 10 μM; for Selectivity of degradation within the BRD protein family, with MDM2 ligands: HCT116, Western blot, with 8310 / 8312
From the text: Anti-BRD4 (13440, 1:1,000 dilution for Western Blot and 1:25 dilution for ProteinSimple); Anti-BRD2 (5848 1:1,000 dilution for Western Blot and 1:25 dilution for ProteinSimple); β-Actin (3700, 1:2,000 dilution for Western Blot), β-Actin (4970, 1:50 dilution for ProteinSimple) anti-mouse IgG-HRP, and anti-rabbit IgG-HRP antibodies were purchased Cell Signaling Technology. Anti-GAPDH (600-401-A33, 1:100 dilution for ProteinSimple) was purchased from Rockland Immunochemicals, Inc. Anti-BRD3 (sc-81202, 1:200 dilution for Western Blot) was purchased from Santa Cruz Biotechnology.
as §1
HCT116 cells (3×10^6) were treated for 24 hours with the compounds solubilized in DMSO. Compounds were added at 100 nM-10 μM each. Standardized protein samples were electrophoresed and imaged as described in the Immunoblotting section above. FIGS. 64 and 65 depict the concentration-dependence of CURE-PRO-mediated BRD2 and BRD3 degradation using MDM2 ligands.

[3] = system: SLC19A1; assay: Suppression of c-MYC downstream target gene SLC19A1, RT-PCR (Cells-to-Ct), HeLa cells; assay type: cell-based, Human; conditions: 24 h, 10 μM each
Procedure: The suppression of the expression of the downstream c-MYC target, SLC19A1, was measured by RT-PCR using Power SYBR© Green Cells-to-Ct™ Kit (Life Technologies). Adherent cells were plated on 96 well plates at 5,000 cells per well were treated for 24h with monomer compounds and compounds capable of reversible interactions (1 nM-100 μM). Cells were subsequently washed in ice-cold PBS processed according to the manufacturer's instructions. Quantitative real-time PCR was performed using a ViiA™ 7 Real-time PCR System (Applied Biosystems, Foster City, Calif., USA). GAPDH and ACTB served as internal controls. The primers used were (5′-3′): GAPDH-F: AGCCACATCGCTCAGACAC (SEQ ID NO:9), GAPDH-R: GCCCAATACGACCAAATCC (SEQ ID NO:10), ACTB —F: CCAACCGCGAGAAGATGA (SEQ ID NO: 11), ACTB -R: […] (SEQ ID NO: 12), SLC19A1-F: […] (SEQ ID NO:13), SLC19A1-R: […] (SEQ ID NO: 14).
HeLa cells (1×104) were treated for 24 hours in 96 well plates with the compounds solubilized in DMSO. Compounds were added at 10 μM each and RNA expression measured by the Cells-to Ct method described above (Thermofisher). CURE-PRO-mediated suppression of the downstream target gene of c-MYC, SLC19A1, after BRD4 degradation was evident in cells treated with the combination of BRD-N25 and 8310 or 8312 (FIG. 66) and BRD-N39 and 8310 and 8312 (FIG. 67) as indicated by a rightward shift in the curve and in increase in the Ct values.

| SMILES | BRD4 degradation, with VHL ligand 8305 (Western blot) [1] | BRD4 degradation, in combination with MDM2 ligands 8310 and 8312 (Western blot) [2] | Selectivity of degradation within the BRD protein family, with MDM2 ligands [2] | Suppression of SLC19A1 expression, combination with 8310 [3] | Suppression of SLC19A1 expression, combination with 8312 [3] |
| --- | --- | --- | --- | --- | --- |
| CCNC(=O)C[C@@H]1N=C(c2ccc(Cl)cc2)c2cc(OCCCCC(=O)Nc3cccc(B(O)O)c3)ccc2-n2c(C)nnc21 [BRD-E20, (3-(5-(((4S)-6-(4-chlorophenyl)-4-(2-(ethylamino)-2-oxoethyl)-1-methyl-4H-benzo[f][1,2,4]triazolo[4,3-a][1,4]diazepin-8-yl)oxy)pentanamido)phenyl)boronic acid] | there is degradation of BRD4 | – | – | – | – |
| CCNC(=O)C[C@@H]1N=C(c2ccc(Cl)cc2)c2cc(OCCNC(=O)c3cccc(O)c3O)ccc2-n2c(C)nnc21 [BRD-N25] | – | caused BRD4 degradation; also recorded: Degradation is evident | some selectivity for BRD3 and BRD4 over BRD2 for 8310 | evident | evident; also recorded: suppressed more substantially |
| CCNC(=O)C[C@@H]1N=C(c2ccc(Cl)cc2)c2cc(OCCOCCNC(=O)c3cccc(O)c3O)ccc2-n2c(C)nnc21 [BRD-N39, N-(2-(2-(((4S)-6-(4-chlorophenyl)-4-(2-(ethylamino)-2-oxoethyl)-1-methyl-4H-benzo[f][1,2,4]triazolo[4,3-a][1,4]diazepin-8-yl)oxy)ethoxy)ethyl)-2,3-dihydroxybenzamide] | – | caused BRD4 degradation; also recorded: Degradation is evident | some selectivity for BRD4 over BRD2 and BRD3 | evident; also recorded: suppression to levels comparable to that of JQ1 treatment | Complete suppression of SLC19A1 was evident; also recorded: completely suppressed |
